Values of other authors in patent publication US20140308215A1, “ANTIPERSPIRANT COMPOSITIONS AND METHOD FOR REDUCING PERSPIRATION” (Conopco, Inc., d/b/a Unilever, priority 2011, published 2014).

Conditions: Hildebrand Solubility Parameter of the liquid carrier

Row | HSP | Compound
1 | 16.40 (MPa)^0.5 | CCCCCCCCCCCCCC(=O)OC(C)C [Isopropyl myristate]
2 | 16.36 (MPa)^0.5 | CCCCCCCCCCCCCCCC [Hexadecane]
3 | 18.25 (MPa)^0.5 | CCCCCCCCCCC(CO)CCCCCCCC (stereo not shown) [Octyl dodecanol]
4 | 18.02 (MPa)^0.5 | CCCCC(CC)C(=O)OCC(COC(=O)C(CC)CCCC)OC(=O)C(CC)CCCC (stereo not shown) [Triethylhexanoin]
